Measurements from paper PMC10823477 (Journal of Medicinal Chemistry, 2023).
“Also recorded” adds a separate entry of the source.

Assays:
5-HT2A receptor = 5-HT2A receptor (Mus musculus, UniProt P35363); assay: head-twitch response; type: in vivo, C57BL/6 mice; conditions: mice, 1 mg/kg p.o.; for HTR induction, result in words: 15–30 min window
[1] = tested on: mice subjected to a Mild Chronic Stress Paradigm (MCSP); assay: marble-burying test; type: in vivo, C57BL/6 mice; conditions: for marble-burying behavior in stressed mice, 1 day postdose, in words / marble-burying behavior in stressed mice, up to 7 days, in words: MCSP mice, single p.o. dose, psilocybin 1 mg/kg, NPDs 10 mg/kg
[2] = human participants, 25 mg psilocybin; cited from earlier work
[3] = humans; cited from earlier work
[4] = plasma pharmacokinetics of psilocin and parent prodrug in healthy mice; conditions: for time up to which parent derivative is detected systemically postdose: plasma parent prodrug; for psilocin AUC(0–tlast) relative to ES02: 10 mg/kg p.o., within first 8 h

Chain of 5-HT2A receptor (P35363 whole entry): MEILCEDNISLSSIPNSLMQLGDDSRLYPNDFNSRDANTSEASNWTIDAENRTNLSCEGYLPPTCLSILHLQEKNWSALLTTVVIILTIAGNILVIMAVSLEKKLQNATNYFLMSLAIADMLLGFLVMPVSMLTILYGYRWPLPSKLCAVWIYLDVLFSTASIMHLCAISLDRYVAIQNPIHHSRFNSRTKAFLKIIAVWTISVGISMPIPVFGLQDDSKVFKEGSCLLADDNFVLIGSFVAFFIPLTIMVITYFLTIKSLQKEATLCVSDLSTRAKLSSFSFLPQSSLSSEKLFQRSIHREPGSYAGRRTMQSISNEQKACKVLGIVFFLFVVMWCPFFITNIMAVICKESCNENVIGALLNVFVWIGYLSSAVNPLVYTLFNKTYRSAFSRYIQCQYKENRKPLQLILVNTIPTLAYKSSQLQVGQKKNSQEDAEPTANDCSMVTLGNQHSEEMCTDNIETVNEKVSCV

CN(C)CCc1c[nH]c2cccc(OP(=O)(O)O)c12 [PCB, psilocybin, reference compound]
duration of statistically enhanced HTR relative to vehicle (5-HT2A receptor): up to 90 min
observation window of peak HTR intensity (5-HT2A receptor): 15 to 30 min
marble-burying behavior in stressed mice, 1 day postdose, in words [1]: significantly reduced number of buried marbles
marble-burying behavior in stressed mice, up to 7 days, in words [1]: long-term benefits lasting up to 7 days post-treatment
effect on innate burying behavior in nonstressed mice ([1]; nonstressed mice, 1 mg/kg p.o.): no significant effect on the innate burying behavior in nonstressed mice
duration of systemic psilocin exposure postadministration [2]: up to 24 h
time of peak plasma psilocin level [2]: 2 h
duration of psychedelic episode from time of dosing [3]: up to 6 h

CN(C)CCc1c[nH]c2cccc(OC(=O)CC3CC3)c12 [ES02, 3-(2-(Dimethylamino)ethyl)-1H-indol-4-yl 2-cyclopropylacetate]
HTR induction, result in words (5-HT2A receptor): induced HTR at an intensity statistically equivalent to the natural psychedelic compound
marble-burying behavior in stressed mice, 1 day postdose, in words [1]: significant reduction in marble-burying behavior

CC(C)[Si](Oc1cccc2[nH]cc(CCN(C)C)c12)(C(C)C)C(C)C [SE02, N,N-Dimethyl-2-(4-((triisopropylsilyl)oxy)-1H-indol-3-yl)ethanamine]
HTR induction, result in words (5-HT2A receptor): induced notable HTR
time up to which parent derivative is detected systemically postdose [4]: up to 8 h

CN(C)CCc1cn(C(=O)OCc2ccccc2)c2cccc(OC(=O)OCc3ccccc3)c12 [C01, Benzyl 4-(((Benzyloxy)carbonyl)oxy)-3-(2-(dimethylamino)ethyl)-1H-indole-1-carboxylate]
HTR induction, result in words (5-HT2A receptor): ineffective in inducing HTR

CN(C)CCc1c[nH]c2cccc(OC(=O)OCc3ccccc3)c12 [C02, Benzyl (3-(2-(Dimethylamino)ethyl)-1H-indol-4-yl) Carbonate]
HTR induction, result in words (5-HT2A receptor): statistically significant psychomimetic effects in healthy mice

CN(C)CCc1c[nH]c2cccc(OC(=O)c3cccc4c3OCCO4)c12 [ES04, 3-(2-(Dimethylamino)ethyl)-1H-indol-4-yl 2,3-dihydrobenzo[b][1,4]dioxine-5-carboxylate]
HTR induction, result in words (5-HT2A receptor): appeared not to induce a notable hallucinogenic effect

CN(C)CCc1c[nH]c2cccc(OC(=O)c3c(F)c(F)c(F)c(F)c3F)c12 [ES03, 3-(2-(Dimethylamino)ethyl)-1H-indol-4-yl 2,3,4,5,6-pentafluorobenzoate]
HTR induction, result in words (5-HT2A receptor; 1 mg/kg): induced HTR at an intensity statistically equivalent to the natural psychedelic compound; also recorded: produced HTR responses equivalent to psilocybin

CCCC(=O)OCOc1cccc2[nH]cc(CCN(C)C)c12 [EE01, ((3-(2-(Dimethylamino)ethyl)-1H-indol-4-yl)oxy)methyl Butyrate]
HTR induction, result in words (5-HT2A receptor): appeared not to induce a notable hallucinogenic effect

CN(C)CCc1c[nH]c2cccc(O[Si](C)(C)C(C)(C)C)c12 [SE01, 2-(4-((tert-Butyldimethylsilyl)oxy)-1H-indol-3-yl)-N,N-dimethylethanamine]
HTR induction, result in words (5-HT2A receptor): induced notable HTR
time up to which parent derivative is detected systemically postdose [4]: up to 8 h

CN(C)CCc1c[nH]c2cccc(OC(=O)OCC3CC3)c12 [C03, Cyclopropylmethyl (3-(2-(Dimethylamino)ethyl)-1H-indol-4-yl) Carbonate]
HTR induction, result in words (5-HT2A receptor): appeared not to induce a notable hallucinogenic effect

CN(C)CCc1c[nH]c2cccc(OC(=O)SCc3ccccc3)c12 [T01, S-Benzyl O-(3-(2-(Dimethylamino)ethyl)-1H-indol-4-yl) Carbonothioate]
HTR induction, result in words (5-HT2A receptor; 1 mg/kg): induced notable HTR; also recorded: statistically significant psychomimetic effects in healthy mice
marble-burying behavior in stressed mice, 1 day postdose, in words [1]: significant reduction in marble-burying behavior
marble-burying behavior in stressed mice, up to 7 days, in words [1]: completely rescuing the elevated anxiety-like condition to the innate behavioral state up to 7 days after treatment
psilocin (Cmax) produced relative to psilocybin ([4]; 1 mg/kg i.v., 1 mg/kg): three to five times greater than psilocybin; also recorded: approximately four times greater psilocin relative to the natural prodrug
psilocin AUC(0–tlast) relative to ES02 [4]: greater than twice that of ES02

COc1ccc(C(=O)Oc2cccc3[nH]cc(CCN(C)C)c23)cc1 [ES01, 3-(2-(Dimethylamino)ethyl)-1H-indol-4-yl 4-Methoxybenzoate]
HTR induction, result in words (5-HT2A receptor; 1 mg/kg): induced HTR at an intensity statistically equivalent to the natural psychedelic compound; also recorded: produced HTR responses equivalent to psilocybin
marble-burying behavior in stressed mice, 1 day postdose, in words [1]: significant reduction in marble-burying behavior
marble-burying behavior in stressed mice, up to 7 days, in words [1]: completely rescuing the elevated anxiety-like condition to the innate behavioral state up to 7 days after treatment
psilocin AUC(0–tlast) relative to ES02 [4]: greater than twice that of ES02
